According to patent publication US20100099663A1, “4-TRIFLUOROMETHOXYPHENOXYBENZOL-4'-SULFONIC ACIDS, METHOD FOR THE PRODUCTION AND USE THEREOF IN MEDICAMENTS” (SANOFI-AVENTIS DEUTSCHLAND GMBH, priority 2004, published 2010):

Key:
[1] = molecular target: T1, catalytic domain of human stromelysin (MMP-3) (Homo sapiens, UniProt P08254); experiment: Enzymatic activity of the catalytic domain of human stromelysin (MMP-3), fluorogenic substrate; type: biochemical; settings: pH 7.5, 15 min preincubation, read-out: Matrix metalloproteinase inhibition MMP-3 (IC50)
T1 construct: Enzymatic Activity of the Catalytic Domain of Human Stromelysin (MMP-3); made in house
Description: (§1) Preparation and Determination of the Enzymatic Activity of the Catalytic Domain of Human Stromelysin (MMP-3) and of Neutrophil Collagenase (MMP-8).
(§2) The two enzymes stromelysin (MMP-3) and neutrophil collagenase (MMP-8) were prepared by the method of Ye et al. (Biochemistry; 31 (1992) pages 11231-11235). The enzymic activity or the effect of the enzyme inhibitor was measured by incubating 10 μl of enzyme solution with 10 μl of a 3% strength (v/v) buffered dimethyl sulfoxide solution which contained the enzyme inhibitor where appropriate, for 15 minutes. After addition of 10 μl of a 3% strength (v/v) aqueous dimethyl sulfoxide solution which contained 1 mmol/l of the substrate, the enzymic reaction was followed by fluorescence spectroscopy (328 nm (ex)/393 nm(em)).
(§3) The enzymic activity is presented as increase in extinction/minute. The IC50 values listed in Table 1 were determined as the inhibitor concentrations leading in each case to 50% inhibition of the enzyme.
(§4) The buffer solution contained 0.05% Brij (Sigma, Deisenhofen, Germany) and 0.1 mol/l of Tris/HCl, 0.1 mol/l of NaCl, 0.01 mol/l of CaCl2 and 0.1 mol/l of piperazine-N,N′-bis[2-ethanesulfonic acid] (pH=7.5).
(§5) The MMP-3 enzyme solution contained 2.3 μg/ml and the MMP-8 enzyme solution 0.6 μg/ml of one of the enzyme domains prepared by the method of Ye et al. The substrate solution contained 1 mmol/l of the fluorogenic substrate (7-methoxycoumarin-4-yl)acetyl-Pro-Leu-Gly-Leu-3-(2′,4′-dinitrophenyl)-L-2,3-diaminopropionyl-Ala-Arg-NH2 (Bachem, Heidelberg, Germany).

[2] = molecular target: T2, catalytic domain of neutrophil collagenase (MMP-8) (Homo sapiens, UniProt P22894); experiment: Enzymatic activity of the catalytic domain of neutrophil collagenase (MMP-8), fluorogenic substrate; type: biochemical; settings: pH 7.5, 15 min preincubation, read-out: Matrix metalloproteinase inhibition MMP-8 (IC50)
T2 construct: Catalytic Domain of Human Stromelysin (MMP-3) and of Neutrophil Collagenase (MMP-8); made in house
Description: as §1, §2, §3, §4, §5

[3] = molecular target: T3, catalytic domain of human collagenase-3 (MMP-13) (Homo sapiens, UniProt P45452); experiment: Enzymatic activity of the catalytic domain of human collagenase-3 (MMP-13), fluorogenic substrate; type: biochemical; settings: APMA-activated proenzyme, pH 7.5, read-out: Matrix metalloproteinase inhibition MMP-13 (IC50)
T3 construct: Determination of the Enzymatic Activity of the Catalytic Domain of Human Collagenase-3 (MMP-13); purchased INVITEK, Berlin 30 100 803
Description: Determination of the Enzymatic Activity of the Catalytic Domain of Human Collagenase-3 (MMP-13).
Activation of the proenzyme:
2 parts by volume of proenzyme were incubated with 1 part by volume of APMA solution at 37° C. for 1.5 hours. The APMA solution was prepared from a 10 mmol/l p-aminophenylmercuric acetate solution in 0.1 mmol/l NaOH by dilution with 3 parts by volume of Tris/HCl buffer pH 7.5 (see below). The pH was adjusted to between 7.0 and 7.5 by adding 1 mmol/l HCl. After activation of the enzyme it was diluted with the Tris/HCl buffer to a concentration of 1.67 μg/ml.
The enzymic activity was measured by incubating 10 μl of enzyme solution with 10 μl of a 3% strength (v/v) buffered dimethyl sulfoxide solution (reaction 1) for 15 minutes. The enzyme inhibitor activity was measured by incubating 10 μl of enzyme solution with 10 μl of a 3% strength (v/v) buffered dimethyl sulfoxide solution which contained the enzyme inhibitor (reaction 2).
The enzymic reaction both in the case of reaction 1 and in the case of reaction 2 was followed after addition of 10 μl of a 3% strength (v/v) aqueous dimethyl sulfoxide solution which contains 0.075 mmol/l of the substrate by fluorescence spectroscopy (328 nm (extinction)/393 nm (emission)).
The enzymic activity has been presented as increase in extinction/minute. The effect of the inhibitor was calculated as percentage inhibition by the following formula:
% inhibition=100−[(increase in extinction/minute in reaction 2)/(increase in extinction/minute in reaction 1)×100].
The IC50, which is the concentration of inhibitor which is necessary for 50% inhibition of the enzymic activity, was determined graphically by plotting the percentage inhibitions at various inhibitor concentrations.
The buffer solution contained 0.05% Brij (Sigma, Deisenhofen, Germany) and 0.1 mol/l of Tris/HCl, 0.1 mol/l of NaCl, 0.01 mol/l of CaCl2 (pH=7.5).
The enzyme solution contained 1.67 μg/ml of the enzyme domain. The substrate solution contained 0.075 mmol/l of the fluorogenic substrate (7-methoxycoumarin-4-yl)acetyl-Pro-Leu-Gly-Leu-3-(2′,4′-dinitrophenyl)-L-2,3-diaminopropionyl-Ala-Arg-NH2 (Bachem, Heidelberg, Germany).

[4] = Pharmacokinetic measurements in mice after oral administration (n-in-one study); type: in vivo; settings: male C57/BL mice, oral by gavage about 7.5 mg per kg in PEG400/water 1:1, n-in-one, plasma
Description: In each case 14 or 16 male C57/BL mice with an average weight of 20 to 28 g were used for the investigation, and divided into two groups. The animals had free access to feed and water. The substances were dissolved in PEG400/water 1:1 and administered orally by gavage in a concentration of about 7.5 mg per kg (equivalent to about […] per animal). In each case, 2 novel compounds and one comparative compound were previously dissolved separately, mixed and administered simultaneously (n-in-one study). Blood samples were taken after 0.25, 0.5, 1, 2, 4, 6, 8 and 24 h, and the substance concentration was determined quantitatively by HPLC-MS under standardized conditions as described below. The individual results were initially combined within the two groups and then the average was formed therefrom. The pharmacokinetic parameters are calculated using the noncompartmental model (extravascular input).
Quantification took place by HPLC-MS-MS. An HPLC system from Agilent (1100) was used, coupled to a PE-Sciex API 4000 (triple quadruple mass spectrometer). The column used was a ProdigyR 5μ ODS, flow rate […], injected volumes 16 μl. Eluent: acetonitrile-0.002% ammonium formate. Detection took place in MS/MS mode (multiple reaction monitoring) focussed on Q1 and selective masses (fragment) filtration on Q3.
Workup of the plasma samples beforehand took place as follows: admixture of 25 μl of 60/40 acetonitrile/0.1% formate plus 25 μl of internal standard 5 μg/ml in the same solvent, plus 25 μl of blank plasma or sample plasma, plus 200 μl of acetonitrile. Mixing for 5 min was followed by centrifugation (3 min, 5000 g) and then pipetting of 200 μl into the measurement vessels.
Cmax is the maximum plasma concentration reached at one of the sampling times. AUC “area under the curve”, time course of the decrease in concentration and Cmax determine the magnitude of the value.

T1 sequence (P08254 100-272 limits assumed): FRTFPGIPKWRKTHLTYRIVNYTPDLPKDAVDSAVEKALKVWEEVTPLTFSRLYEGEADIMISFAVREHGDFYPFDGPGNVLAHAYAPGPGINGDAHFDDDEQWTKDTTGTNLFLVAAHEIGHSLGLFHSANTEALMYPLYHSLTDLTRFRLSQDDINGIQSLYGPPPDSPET
T2 sequence (P22894 100-262 limits assumed): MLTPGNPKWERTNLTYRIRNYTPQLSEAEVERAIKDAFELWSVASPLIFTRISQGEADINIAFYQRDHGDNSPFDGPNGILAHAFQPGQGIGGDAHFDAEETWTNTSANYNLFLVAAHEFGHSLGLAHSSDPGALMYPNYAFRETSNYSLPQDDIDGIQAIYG

Molecule | IC50 [1] | IC50 [2] | IC50 [3] | AUC [4] | Cmax [4] | t½ [4]
5-[4-(4-Trifluoromethoxyphenoxy)benzenesulfonyl]octahydrofuro[3,2-c]pyridine-4-carboxylic acid [Example 5] | 380 nM | 210 nM | 240 nM | – | – | –
O=C(NO)C1C2CCOC2CCN1S(=O)(=O)c1ccc(Oc2ccc(OC(F)(F)F)cc2)cc1 (stereo not drawn) [Example 6, 5-[4-(4-Trifluoromethoxyphenoxy)benzenesulfonyl]octahydrofuro[3,2-c]pyridine-4-(N-hydroxy)carboxamide] | 24 nM | 4 nM | 2 nM | – | – | –
O=C(NO)C1C2CCCCC2CCCN1S(=O)(=O)c1ccc(Oc2ccc(OC(F)(F)F)cc2)cc1 (stereo not drawn) [Example 7, 2-[4-(4-Trifluoromethoxyphenoxy)benzenesulfonyl]decahydrobenzo[c]azepine-1-(N-hydroxy)carboxamide] | 24 nM | 4 nM | 2 nM | – | – | –
O=C(NO)C1C2CCCCC2CCN1S(=O)(=O)c1ccc(Oc2ccc(OC(F)(F)F)cc2)cc1 (stereo not drawn) [Example 4, 2-[4-(4-Trifluoromethoxyphenoxy)benzenesulfonyl]decahydroisoquinoline-1-(N-hydroxy)carboxamide] | 69 nM | 14 nM | 4 nM | – | – | –

Second part, the molecule after the results:

IC50 [1] | IC50 [2] | IC50 [3] | AUC [4] | Cmax [4] | t½ [4] | Molecule
– | – | – | 160 ng·h/mL | 240 ng/mL | 1.8 h | O=C(O)C1c2ccccc2CCN1S(=O)(=O)c1ccc(Oc2ccc(OC(F)(F)F)cc2)cc1 (stereo not drawn) [Example 10, 2-[4-(4-Trifluorophenoxy)benzenesulfonyl]-1,2,3,4-tetrahydroisoquinoline-1-carboxylic acid]
23 nM | 2.3 nM | 2.2 nM | 250 ng·h/mL | 450 ng/mL | 1.5 h | COc1ccc(Oc2ccc(S(=O)(=O)N3CCc4ccccc4C3C(=O)NO)cc2)cc1 (stereo not drawn) [Example 9, 2-[4-(4-Methoxyphenoxy)benzenesulfonyl]-1,2,3,4-tetrahydroisoquinoline-1-N-hydroxycarboxamide, reference compound]
28 nM | 3.6 nM | 2 nM | 2230 ng·h/mL | 1350 ng/mL | 6.6 h | O=C(NO)C1c2ccccc2CCN1S(=O)(=O)c1ccc(Oc2ccc(OC(F)(F)F)cc2)cc1 (stereo not drawn) [Example 3, 2-[4-[4-Trifluoromethoxyphenoxy)benzenesulfonyl]-1,2,3,4-tetrahydroisoquinoline-1-(N-hydroxy)carboxamide]
